For this assay, the target named is HDAC2 (Homo sapiens, UniProt Q92769). Nature of the assay: Inhibition of purified HDAC2, Boc-Lys(Ac)-AMC substrate. The note with it: 1 h 37 °C. On the set-up: purchased Cayman Chemical. Type of assay: biochemical.

Molecules are shown by their SMILES.

Chain of HDAC2 (Q92769 whole entry): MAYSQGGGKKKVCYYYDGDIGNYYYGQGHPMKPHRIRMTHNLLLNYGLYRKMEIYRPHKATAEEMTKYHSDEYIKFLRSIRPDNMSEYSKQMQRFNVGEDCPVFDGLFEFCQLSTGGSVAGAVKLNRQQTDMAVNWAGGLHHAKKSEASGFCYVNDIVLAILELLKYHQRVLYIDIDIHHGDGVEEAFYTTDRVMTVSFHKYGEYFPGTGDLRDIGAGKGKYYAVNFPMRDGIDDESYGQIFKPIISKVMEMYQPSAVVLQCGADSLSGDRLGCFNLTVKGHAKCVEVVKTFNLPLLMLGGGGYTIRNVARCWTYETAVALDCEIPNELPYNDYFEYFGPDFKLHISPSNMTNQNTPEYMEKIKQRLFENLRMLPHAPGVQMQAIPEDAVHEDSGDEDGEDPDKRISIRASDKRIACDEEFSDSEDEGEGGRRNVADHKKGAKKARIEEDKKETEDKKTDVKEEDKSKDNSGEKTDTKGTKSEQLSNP

One may read the IC50 as the midpoint of a concentration-inhibition curve. Low values mean higher potency, high ones lower potency. `CCC(CC)(c1ccc(OCCCCCC(=O)NO)cc1)c1ccc(OCC(O)C(C)(C)C)c(C)n1` (stereo not shown) [AM-193] had a half-maximal inhibitory concentration (IC50) of 4.18 µM.
